Laboratory results as given in US7579356B2, “Thia-tetraazaacenaphthylene kinase inhibitors” (Janssen Pharmaceutica NV, priority 2005, dated 2009).

Columns and labels:
EGFR = target: T1, EGFR (Homo sapiens, UniProt P00533); test: EGFR Kinase Assay; format: biochemical; conditions: for IC50: GST-EGFR, ATP 5 μM
T1 construct: The intracellular portion of EGFR started at nucleotide 2189 (corresponding to amino acid 667) and ended at the termination codon; made in house; host or cells: Sf9 insect cells (baculovirus)
Excerpt: The EGFR kinase used was a fusion of Glutathione-S-Transferase (GST) and a PCR amplified intracellular portion of EGFR (Accession Number NM_005228). The intracellular portion of EGFR started at nucleotide 2189 (corresponding to amino acid 667) and ended at the termination codon. The portion was PCR amplified with primers that added the lambda attB sequences to each end, recombined into an entry vector, then into a GST destination vector (as described in Gateway Technologies Manual by Invitrogen Corporation, Carlsbad, Calif.).
The destination vector was recombined in the DH10BAC strain of bacteria to produce a bacmid. The bacmid was transfected into Sf 9 cells and the supernatant containing the baculovirus was collected. The GSTEGFR protein was purified using large cultures of Sf 9 cells infected with stock virus. After an appropriate period of time, the cells were collected and lysed. The GSTEGFR was then purified from the lysate on Glutathione-Sepharose columns (as described by Amersham Biosciences, Buckinghamshire, United Kingdom).
The EGFR substrate was prepared by biotinylating polyGluTyr (128 mg) (Sigma, St. Louis, Mo.) in a 1×PBS buffer incubated together with a 12-fold molar excess of Sulfo-NHS-LC-Biotin on ice for at least 2 hrs. The free biotin was separated from the biotinylated polyGluTyr on a gel filtration column.
A mixture of a 10× kinase buffer (500 mM Tris at pH 8.0, 100 mM Magnesium Chloride and 1 mM Sodium Vanadate), DTT (1 mM final from 500 mM stock), ATP (5 μM final from 10 mM stock), biotinylated polyGluTyr (10 μg/μL stock), γ-^33P ATP (10 μCl/μL stock) and water was added to each well (for a total of 90 μL/well) of a Streptavidin Flashplate (Perkin Elmer, Wellesley, Mass.).
Test compound in 100% DMSO (2 μL) was added to the appropriate wells. Diluted GSTEGFR (1:300 dilution in 50 mM Tris at pH 8.0 and 0.1% bovine serum albumin) (10 μL) was added to the wells to initiate the reactions.
The plates were incubated at 30° C. for 1 hr with shaking. The reacted contents were removed and the plates were sequentially washed three times with a 1×PBS stop buffer (300 μL without Magnesium and Calcium) and 100 mM EDTA. After the final wash, the same stop buffer (200 μL) was added to the wells. The plates were then sealed and read on the TopCount scintillation counter.
Test compounds were assayed in triplicate at 16 concentrations at half-log dilutions starting at 200 uM. A maximum and minimum signal for the assay was determined on each plate. The percent inhibition of a test compound was calculated according to the formula: […]
For a series of test concentrations, the IC50 was derived by graphing percent inhibition against the log of the concentrations tested for a given compound. For those compounds without an IC50, the inhibition values in percent are shown at a test concentration of 2 μM. For compounds with multiple values, each value represents a separate assay result.

HER-2 = target: T2, HER-2 (Homo sapiens, UniProt P04626); test: HER-2 Kinase Assay; format: biochemical; conditions: value in parentheses
T2 construct: His6 with thrombin site (N); purchased Proqinase (Freiburg, Germany)
Description: The HER-2 kinase used was purified at Proqinase (Freiburg, Germany) from a construct that consisted of a fusion of GST (Glutathione-S-Transferase), HIS6-Thrombin and the nucleotides encoding amino acids 679 to 1255 of HER-2 (Accession Number M11730).
A mixture of a 10× kinase reaction buffer (600 mM Hepes at pH 7.5, 30 mM Magnesium Chloride, 0.03 mM Sodium Vanadate and 500 μg/mL PEG 20,000), DTT (1.2 mM final from a 10 mM stock), APT (1 μM from a 10 mM stock), biotinylated polyGluTyr (1.5 ng/μL final from stock of 1 μg/μL) prepared by Upstate Biotechnologies, Lake Placid, N.Y.), Manganese Chloride (3 mM final from a 1 M stock), γ-^33P-ATP (10 μCl/μL stock) and water (70 μL/well) was added to each well of a Streptavidin Flashplate (Cat. # SMP103, NEN, Boston, Mass.).
Test compound stock (1 μL) was added to the appropriate wells. Diluted GSTHER2 kinase (6.7 ng/μL diluted into 50 mM Tris-HCl at pH 8.0 and 0.1% bovine serum albumin) (30 μL) was added (total volume of 200 ng/well) to initiate the reactions.
The reaction plates were incubated at 30° C. for 1 hr. The reaction was terminated by aspirating the reaction mixture from the plate wells and washing the wells three times with a 1×PBS stop buffer (300 μL) and 100 mM EDTA. After the final wash, the same stop buffer (200 μL) was again added to the wells. The plates were then sealed and read on the TopCount scintillation counter.
The Her-2 inhibition values were derived according to the procedure described in Example 164 and are shown as percent in Table 4 at a test concentration of 1 μM. For those compounds with an IC50, the IC50 value in μM is shown in parentheses. For compounds with multiple test values, each value represents a separate assay result.

T1 sequence (P00533 669-1210 limits assumed): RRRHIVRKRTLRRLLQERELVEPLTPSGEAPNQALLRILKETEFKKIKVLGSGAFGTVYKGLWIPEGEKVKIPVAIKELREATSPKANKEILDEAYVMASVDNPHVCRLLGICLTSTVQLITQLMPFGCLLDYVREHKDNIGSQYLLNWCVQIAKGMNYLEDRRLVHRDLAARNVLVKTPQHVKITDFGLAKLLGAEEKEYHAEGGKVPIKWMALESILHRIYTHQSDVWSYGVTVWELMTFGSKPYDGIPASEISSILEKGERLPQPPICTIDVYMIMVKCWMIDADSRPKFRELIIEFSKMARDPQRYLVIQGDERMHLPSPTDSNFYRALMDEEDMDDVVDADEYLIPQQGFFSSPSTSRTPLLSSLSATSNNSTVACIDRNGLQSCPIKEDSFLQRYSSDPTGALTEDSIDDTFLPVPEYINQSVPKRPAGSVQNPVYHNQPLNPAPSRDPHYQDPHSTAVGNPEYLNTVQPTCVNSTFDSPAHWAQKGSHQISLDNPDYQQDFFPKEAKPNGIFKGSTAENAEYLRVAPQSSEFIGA
T2 sequence (P04626 679-1255): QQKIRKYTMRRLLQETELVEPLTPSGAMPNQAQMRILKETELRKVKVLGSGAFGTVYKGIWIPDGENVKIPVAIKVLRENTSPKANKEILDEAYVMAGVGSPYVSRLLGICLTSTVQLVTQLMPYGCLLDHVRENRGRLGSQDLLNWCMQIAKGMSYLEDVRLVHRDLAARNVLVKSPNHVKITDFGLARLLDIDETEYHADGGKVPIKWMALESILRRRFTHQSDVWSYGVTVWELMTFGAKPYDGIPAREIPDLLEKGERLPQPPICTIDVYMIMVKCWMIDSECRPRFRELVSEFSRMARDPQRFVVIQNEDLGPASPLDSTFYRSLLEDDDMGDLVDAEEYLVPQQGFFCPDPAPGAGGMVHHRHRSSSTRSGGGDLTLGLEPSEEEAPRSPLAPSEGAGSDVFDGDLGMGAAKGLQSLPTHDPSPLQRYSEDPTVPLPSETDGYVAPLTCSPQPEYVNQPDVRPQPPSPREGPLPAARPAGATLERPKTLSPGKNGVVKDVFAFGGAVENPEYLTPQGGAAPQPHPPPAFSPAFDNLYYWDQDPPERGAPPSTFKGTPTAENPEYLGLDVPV

Row | IC50 (EGFR) | IC50 (HER-2) | inhibition at 2 µM (EGFR; test concentration of 2 μM, compounds without an IC50, read-out: EGFR inhibition in percent) | SMILES
1 | 23 nM | 155 nM | – | O=C(Nc1ccc(CN2CCCCC2)cc1)c1sc2ncnc3c2c1NC(=O)N3c1ccc(Oc2cccc(F)c2)c(Cl)c1 [Cpd 160, 5-[3-chloro-4-(3-fluoro-phenoxy)-phenyl]-4-oxo-4,5-dihydro-3H-1-thia-3,5,6,8-tetraaza-acenaphthylene-2-carboxylic acid (4-piperidin-1-ylmethyl-phenyl)-amide]
2 | 23 nM | 699 nM | – | COc1cc(NC(=O)c2sc3ncnc4c3c2NC(=O)N4c2ccc(Oc3cccc(F)c3)c(Cl)c2)ccc1OCCN1CCCCC1 [Cpd 161, 5-[3-chloro-4-(3-fluoro-phenoxy)-phenyl]-4-oxo-4,5-dihydro-3H-1-thia-3,5,6,8-tetraaza-acenaphthylene-2-carboxylic acid [3-methoxy-4-(2-piperidin-1-yl-ethoxy)-phenyl]-amide]
3 | 26 nM | 82 nM | – | O=C(Nc1ccc(CN2CCOCC2)cc1)c1sc2ncnc3c2c1NC(=O)N3c1ccc(Oc2cccc(F)c2)c(Cl)c1 [Cpd 162, 5-[3-chloro-4-(3-fluoro-phenoxy)-phenyl]-4-oxo-4,5-dihydro-3H-1-thia-3,5,6,8-tetraaza-acenaphthylene-2-carboxylic acid (4-morpholin-4-ylmethyl-phenyl)-amide]
4 | 18 nM | 818 nM | – | O=C(Nc1ccc(C(O)CN2CCOCC2)cc1)c1sc2ncnc3c2c1NC(=O)N3c1ccc(Oc2ccccc2)cc1 (centres unmarked) [Cpd 174, 4-oxo-5-(4-phenoxy-phenyl)-4,5-dihydro-3H-1-thia-3,5,6,8-tetraaza-acenaphthylene-2-carboxylic acid [4-(1-hydroxy-2-morpholin-4-yl-ethyl)-phenyl]-amide]
5 | 75 nM | 1500 nM | – | CN1CCC(NC(=O)c2sc3ncnc4c3c2NC(=O)N4c2ccc3c(cnn3Cc3cccc(F)c3)c2)CC1 [Cpd 177, 5-[1-(3-fluoro-benzyl)-1H-indazol-5-yl]-4-oxo-4,5-dihydro-3H-1-thia-3,5,6,8-tetraaza-acenaphthylene-2-carboxylic acid (1-methyl-piperidin-4-yl)-amide]
6 | – | > 100000 nM | 0.7% | CCOC(=O)c1sc2ncnc3c2c1NC(=O)N3C(C)c1ccc(Br)cc1 (centres unmarked) [Cpd 179, 5-[1-(4-bromo-phenyl)-ethyl]-4-oxo-4,5-dihydro-3H-1-thia-3,5,6,8-tetraaza-acenaphthylene-2-carboxylic acid ethyl ester]
7 | 95 nM | 112 nM | – | O=C(Nc1ccc(CN2CCOCC2)cc1)c1sc2ncnc3c2c1NC(=O)N3c1ccc(OCc2ccccn2)c(Br)c1 [Cpd 180, 5-[3-bromo-4-(pyridin-2-ylmethoxy)-phenyl]-4-oxo-4,5-dihydro-3H-1-thia-3,5,6,8-tetraaza-acenaphthylene-2-carboxylic acid (4-morpholin-4-ylmethyl-phenyl)-amide]
8 | 887 nM | 2190 nM | – | COc1ccc(N2C(=O)Nc3c(C(=O)Nc4ccc(CN5CCOCC5)cc4)sc4ncnc2c34)cc1Br [Cpd 181, 5-(3-bromo-4-methoxy-phenyl)-4-oxo-4,5-dihydro-3H-1-thia-3,5,6,8-tetraaza-acenaphthylene-2-carboxylic acid (4-morpholin-4-ylmethyl-phenyl)-amide]
9 | 880 nM | 1680 nM | – | COc1ccc(N2C(=O)Nc3c(C(=O)Nc4ccc(CN5CCCCC5)cc4)sc4ncnc2c34)cc1Br [Cpd 182, 5-(3-bromo-4-methoxy-phenyl)-4-oxo-4,5-dihydro-3H-1-thia-3,5,6,8-tetraaza-acenaphthylene-2-carboxylic acid (4-piperidin-1-ylmethyl-phenyl)-amide]
10 | 420 nM | 980 nM | – | COc1ccc(N2C(=O)Nc3c(C(=O)Nc4ccc(CN5CCOCC5)c(OC)c4)sc4ncnc2c34)cc1Br [Cpd 183, 5-(3-bromo-4-methoxy-phenyl)-4-oxo-4,5-dihydro-3H-1-thia-3,5,6,8-tetraaza-acenaphthylene-2-carboxylic acid (3-methoxy-4-morpholin-4-ylmethyl-phenyl)-amide]
11 | 17 nM | 79 nM | – | COc1cc(NC(=O)c2sc3ncnc4c3c2NC(=O)N4c2cccc(Br)c2)ccc1CN1CCOCC1 [Cpd 184, 5-(3-bromo-phenyl)-4-oxo-4,5-dihydro-3H-1-thia-3,5,6,8-tetraaza-acenaphthylene-2-carboxylic acid (3-methoxy-4-morpholin-4-ylmethyl-phenyl)-amide]
12 | 121 nM | 248 nM | – | O=C(Nc1ccc(CN2CCOCC2)cc1)c1sc2ncnc3c2c1NC(=O)N3c1ccc(Oc2ccccc2)c(Br)c1 [Cpd 187, 5-(3-bromo-4-phenoxy-phenyl)-4-oxo-4,5-dihydro-3H-1-thia-3,5,6,8-tetraaza-acenaphthylene-2-carboxylic acid (4-morpholin-4-ylmethyl-phenyl)-amide]
13 | 49 nM | 83 nM | – | O=C(Nc1ccc(CN2CCCCC2)cc1)c1sc2ncnc3c2c1NC(=O)N3c1ccc(Oc2ccccc2)c(Br)c1 [Cpd 188, 5-(3-bromo-4-phenoxy-phenyl)-4-oxo-4,5-dihydro-3H-1-thia-3,5,6,8-tetraaza-acenaphthylene-2-carboxylic acid (4-piperidin-1-ylmethyl-phenyl)-amide]
14 | 83 nM | 72 nM | – | COc1cc(NC(=O)c2sc3ncnc4c3c2NC(=O)N4c2ccc(Oc3ccccc3)c(Br)c2)ccc1CN1CCOCC1 [Cpd 189, 5-(3-bromo-4-phenoxy-phenyl)-4-oxo-4,5-dihydro-3H-1-thia-3,5,6,8-tetraaza-acenaphthylene-2-carboxylic acid (3-methoxy-4-morpholin-4-ylmethyl-phenyl)-amide]
15 | 18 nM | 62 nM | – | CN1CCC(NC(=O)c2sc3ncnc4c3c2NC(=O)N4c2ccc(Sc3ccccc3)cc2)CC1 [Cpd 191, 4-oxo-5-(4-phenylsulfanyl-phenyl)-4,5-dihydro-3H-1-thia-3,5,6,8-tetraaza-acenaphthylene-2-carboxylic acid (1-methyl-piperidin-4-yl)-amide]
16 | 410 nM | > 1000 nM | – | O=C(Nc1ccc(CN2CCCCC2)cc1)c1sc2ncnc3c2c1NC(=O)N3c1ccc2nc(Cc3cccc(F)c3)[nH]c2c1 [Cpd 192, 5-[2-(3-fluoro-benzyl)-3H-benzoimidazol-5-yl]-4-oxo-4,5-dihydro-3H-1-thia-3,5,6,8-tetraaza-acenaphthylene-2-carboxylic acid (4-piperidin-1-ylmethyl-phenyl)-amide]
